Among the data in publication PMC10978996 (Nature Communications, 2024) are Kd, Km and kcat values, retold here.

Data set [1] has as its target T1, PsiM (Psilocybe cubensis, UniProt P0DPA9).
T1 construct: full length, E. coli; Crystals: pJF45, His6 cut off by thrombin, vector-derived TEV site kept at N-terminus; Wild-type ITC and activity: His6-tagged without thrombin/TEV sites (pFB13); N247M: made from pJF45 template in pET-28a
Briefly: isothermal titration calorimetry. It is filed as binding.

Data set [2] deals with CNCCc1c[nH]c2cccc(OP(=O)(O)O)c12. The data set is described as follows: UHPLC-MS methyltransferase assay, Michaelis-Menten. It is filed as biochemical, Psilocybe cubensis. The conditions noted are these: 1 mM SAM, 50 mM Tris pH 8.4, 28 °C, second methyl transfer.
Data set [3] has as its target T1, PsiM. The data set is described as follows: UHPLC-MS methyltransferase assay, Michaelis-Menten. In kind it is biochemical. The conditions noted are these: 1 mM SAM, 50 mM Tris pH 8.4, 28 °C; first methyl transfer.

As usually defined, the Kd is the concentration at which binding is half-saturated. A higher Kd goes with lower affinity. In the case of `CNCCc1c[nH]c2cccc(OP(=O)(O)O)c12` [baeocystin], at PsiM [1], the Kd came to 77.2 ± 3.5 µM.
Usually Km stands for the substrate concentration at which the rate is half of its maximum. By kcat is commonly meant the number of substrate molecules converted per active site and unit of time at saturation. Take PsiM (Psilocybe cubensis): in data set [2], the Km came out at 492 ± 154 µM and the catalytic constant (kcat) was found to be 0.001 ± 0.00017 s⁻¹.
At PsiM [1], `Nc1ncnc2c1ncn2[C@@H]1O[C@H](CSCC[C@H](N)C(=O)O)[C@@H](O)[C@H]1O` [SAH] showed a Kd of 66 ± 49 µM.
Take `NCCc1c[nH]c2cccc(OP(=O)(O)O)c12` [norbaeocystin]: the Km at PsiM [3] was found to be 575 ± 100 µM. For the same compound, the dissociation constant Kd at PsiM [1] was 35.7 ± 5.4 µM.
